# Data: patent US20080125432A1 (Devgen NV, priority 2004, published 2008)
# How the values were obtained:
# [1] = target: T1, human Kv4.3 (Homo sapiens, UniProt Q9UK17); assay: C. elegans based high-throughput screen for Kv4.3 modulators (pharynx pumping, Calcein AM uptake), transgenic strain UG1755; type: in vivo; conditions: for Ratio N2/Kv4.3: EC50 on N2 divided by EC50 on the Kv4.3 expressing strain, cut-off 1.8; for EC50: transgenic strain UG1755 expressing human Kv4.3, read-out: EC50 (μM) Kv4.3 worm
# T1 construct: expressed in transfected cells; host or cells: transgenic C. elegans strain UG1755 (N2 injected with plasmid pGV8, integrated array)
# T1 sequence (Q9UK17 1-655): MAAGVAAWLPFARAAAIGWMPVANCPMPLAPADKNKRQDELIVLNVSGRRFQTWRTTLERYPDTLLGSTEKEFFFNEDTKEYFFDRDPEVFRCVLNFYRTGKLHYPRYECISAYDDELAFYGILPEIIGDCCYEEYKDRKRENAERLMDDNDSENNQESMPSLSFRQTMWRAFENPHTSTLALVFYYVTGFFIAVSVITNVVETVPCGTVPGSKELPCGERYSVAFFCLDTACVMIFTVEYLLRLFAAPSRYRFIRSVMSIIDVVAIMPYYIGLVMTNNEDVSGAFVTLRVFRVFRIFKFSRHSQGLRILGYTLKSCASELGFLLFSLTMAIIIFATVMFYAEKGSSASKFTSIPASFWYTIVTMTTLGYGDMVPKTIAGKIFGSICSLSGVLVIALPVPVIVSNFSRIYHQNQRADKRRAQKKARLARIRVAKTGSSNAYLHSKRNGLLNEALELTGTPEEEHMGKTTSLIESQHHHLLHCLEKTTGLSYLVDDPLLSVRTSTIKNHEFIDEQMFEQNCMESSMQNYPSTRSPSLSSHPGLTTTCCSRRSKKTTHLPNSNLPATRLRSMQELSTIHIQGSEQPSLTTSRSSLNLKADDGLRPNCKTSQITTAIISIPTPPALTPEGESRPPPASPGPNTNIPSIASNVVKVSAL
# Text: A C. elegans based high-throughput screen for Kv4.3 modulators has been used to establish an in vivo SAR (structure-activity relationships: the effect of chemical structure on biological activity) on Kv4.3 for the compounds according to the present invention.
# This assay has employed a stable transgenic C. elegans strain that functionally expressed human Kv4.3 in the pharynx and a visible selection GFP maker in body-wall muscle.
# The pharynx is the feeding organ of C. elegans and contracts rhythmically 3-4 times per second. The pharynx contraction is controlled by the nervous system via action potentials similar to the human myocyte and can thus be used to study human ion channel physiology in vivo in C. elegans.
# Introducing the human Kv4.3 channel into the C. elegans pharynx influences the C. elegans action potential in a characteristic fashion. The additional number of potassium channels increases potassium ion efflux, enhances re-polarization and thereby shortens the action potential duration. […] The shortened action potentials of the C. elegans pharynx resulting from expression of human Kv4.3, changes the pharynx contraction-relaxation cycle and consequently reduces the pumping/feeding in these transgenic animals. This change of pumping is an end-point amenable to high-throughput screening technology. The pumping end-point can be technically translated into a high-throughput read-out by the use of a pro-fluorescent dye. The pro-fluorescent dye is taken up by C. elegans depending on its pumping activity and converted into a fluorescent dye by enzymes located in its intestines. After a defined incubation period, the change of fluorescence intensity in the intestine can be measured with a plate reader.
# The screening of the compounds according to the present invention has been performed in the C. elegans based high-throughput screen for Kv4.3 modulators described above. The method for testing the activity on human Kv4.3 of the compounds according to the invention with C. elegans strains expressing human Kv4.3 for their activity is the same as the method described in WO 03/097682. The method for testing the compounds on wild-type C. elegans strains not expressing human Kv4.3 is the same as the method described in WO 00/63427. Briefly, UG1755 animals have been grown in large numbers and staged young adults (no or only few eggs inside the uterus) have been harvested on the day of screening. Approximately 125 animals in 80 μl buffer have been dispensed per well of a “U shaped 96-well compound plate The compound plate contained already compound material at a final concentration of 30 μM in 0.3% DMSO. After one hour incubation 10 μl of the fluorescent label Calcein AM (CAM) have been added to achieve a final concentration of 5 μM CAM and 0.8% DMSO. After another four hours of incubation at 20° C., the drinking of C. elegans animals (or the “reaction 8 measured by the uptake of CAM) has been stopped by adding 10 μl of a 60 μM ivermectin solution. The fluorescence intensity (counts per second) has been measured 40 minutes after adding ivermectin with the Wallac plate reader at a wavelength of 535 nm (after excitation at 485 nm).
# The active compounds have been identified and confirmed by dose-response analysis. An EC50 has been calculated and the results are listed under Table 3. Dose-response curves have been obtained at concentrations of 30 μM. EC50 has been calculated using XLfit 2.09 software package.
# [2] = target: T2, Kv1.5 potassium channel (Homo sapiens, UniProt P22460); assay: Patch clamp, CHO cells stably expressing the Kv1.5 potassium channel; type: cell-based; conditions: Kv1.5 mediated current
# T2 construct: expressed in transfected cells
# Procedure: The cDNA coding for Kv1.5 (GenBank Acc. No. M55513) was cloned into the pcDNA6-vector (Invitrogen, Leek, Netherlands). A C-terminal epitope-tag was introduced via PCR. The plasmid was sequenced and subsequently introduced into cells. Clonal cell lines stably expressing the Kv1.5 channel were established. Expression of protein was analyzed by means of immunofluorescence using antibodies directed against the epitope-tag. The functional expression of the ion channels was validated electrophysiologically.
# The experiments were performed using CHO cells stably expressing the Kv1.5 potassium channel.
# From a HP of −60 mV cells were hyperpolarised for 100 ms to […], followed by a 500 ms depolarisation to +50 mV. The current amplitude at the end of the test pulse to +50 mV was used for the analysis. Pulse cycling rate was 10 s (0.1 Hz).
# The application protocol of test compounds is depicted in FIG. 7. The first 14 stimuli were required to achieve steady state of the current amplitude. Unspecific current reduction was calculated and served for correcting procedures during data analysis. After the 14th stimulus the test compound application was started (indicated by an arrow) via teflon and silicone tubings and was assumed to reach the cell after 6 additional stimuli. The perfusion is adjusted by using a defined drop rate of 10 drops per 10-12 s. Up to three concentrations were applied successively to one cell followed by a wash period of 5 minutes. Total number of stimuli was 140. Effect of the test compound was analysed between stimulus nos. 21 and 50 (5 min., long dashed line) for the first concentration, between stimulus nos. 51 and 80 (5 min., short dashed line) for an additional 5 minutes. If the cell was still stable, a wash was added afterwards. Start of test compound application at the given concentration is indicated by arrows. Number of stimuli of each single episode are shown in the protocol of FIG. 7.
# The effects of the compounds were investigated at one concentration (2 μM or 1 μM) on the Kv1.5-mediated potassium channel. For comparison, the vehicle control experiments on the Kv1.5 mediated potassium channel. Results are presented in 9Table 9
# [3] = 2 μM, fraction, cell also prints %
# T2 sequence (P22460 whole entry): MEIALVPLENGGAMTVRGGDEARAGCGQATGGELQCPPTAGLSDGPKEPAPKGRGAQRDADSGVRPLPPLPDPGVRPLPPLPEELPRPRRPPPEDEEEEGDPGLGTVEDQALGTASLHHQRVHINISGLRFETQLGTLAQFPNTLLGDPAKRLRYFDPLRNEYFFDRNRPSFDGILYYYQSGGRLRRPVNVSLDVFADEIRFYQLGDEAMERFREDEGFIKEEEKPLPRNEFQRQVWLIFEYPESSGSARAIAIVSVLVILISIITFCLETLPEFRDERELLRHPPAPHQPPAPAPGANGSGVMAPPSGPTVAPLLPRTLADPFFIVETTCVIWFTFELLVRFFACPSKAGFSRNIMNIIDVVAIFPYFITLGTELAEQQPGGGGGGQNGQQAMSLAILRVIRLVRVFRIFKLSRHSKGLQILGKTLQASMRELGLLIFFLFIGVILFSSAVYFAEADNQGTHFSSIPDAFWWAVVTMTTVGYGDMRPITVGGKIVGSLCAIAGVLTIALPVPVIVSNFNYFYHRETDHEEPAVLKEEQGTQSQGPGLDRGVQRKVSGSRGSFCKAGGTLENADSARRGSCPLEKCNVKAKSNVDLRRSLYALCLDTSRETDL
Ratio N2/Kv4.3 [1],EC50 [1] [µM],Relative remaining current (mean after 8-10 min) ([2]; 1 μM) [%],Structure (SMILES),other results
>1.8,32.1,–,"Cc1nc(Nc2ccc(F)cc2)sc1C(=O)N[C@H](C)c1ccc2ccccc2c1 [Compound 16, 2-(4-fluoro-phenylamino)-4-methyl-thiazole-5-carboxylic acid (R)-1-(naphthalen-2-yl)ethyl amide]",–
2.4,13.5,–,"Cc1nc(Nc2ccc(Br)cc2)sc1C(=O)N[C@@H](C)c1ccc2ccccc2c1 [Compound 18, 2-(4-bromo-phenylamino)-4-methyl-thiazole-5-carboxylic acid (S)-1-(naphthalen-2-yl)ethyl amide]",–
4.7,7,–,"Cc1nc(Nc2ccc(Br)cc2)sc1C(=O)N[C@H](C)c1ccc2ccccc2c1 [Compound 19, 2-(4-bromo-phenylamino)-4-methyl-thiazole-5-carboxylic acid (R)-1-(naphthalen-2-yl)ethyl amide]",–
>6.4,9,–,"Cc1nc(Nc2ccc(Cl)cc2)sc1C(=O)N[C@@H]1CCC[C@H]1OCc1ccccc1 [Compound 30, 2-(4-chloro-phenylamino)-4-methyl-thiazole-5-carboxylic acid (1R,2R)-2-(benzyloxycyclopent-1-yl) amide]",–
–,–,–,"COc1ccccc1Nc1nc(C)c(C(=O)N[C@H]2CCC[C@@H]2OCc2ccccc2)s1 [Compound 68, 2-(2-methoxy-phenylamino)-4-methyl-thiazole-5-carboxylic acid (1S,2S)-2-(benzyloxycyclopent-1-yl) amide]","Relative remaining current (mean after 8-10 min) [2, 3]: 0.51 (51%); Relative remaining current (mean after 5 min) [2, 3]: 0.66 (66%)"
–,–,77,"COc1ccccc1Nc1ccc(C(=O)N[C@H]2CCC[C@@H]2OCc2ccccc2)s1 [Compound 75, 2-(2-methoxy-phenylamino)-thiophene-5-carboxylic acid ((1S,2S)-2-benzyloxycyclopent-1-yl) amide]",–
–,–,44,"Cc1nc(Sc2ccccc2)sc1C(=O)N[C@H]1CCC[C@@H]1OCc1ccccc1 [Compound 81, 4-methyl-2-phenylsulfanyl-thiazole-5-carboxylic acid ((1S,2S)-2-benzyloxycyclopent-1-yl) amide]",–
–,–,79,"Cc1nc(Nc2cccc3cccnc23)sc1C(=O)N[C@H]1CCC[C@@H]1OCc1ccccc1 [Compound 94, 4-methyl-2-(quinolin-8-ylamino)-thiazole-5-carboxylic acid ((1S,2S)-2-benzyloxycyclopent-1-yl) amide]",–
–,–,86,"Cc1nc(Nc2ccc3occc3c2)sc1C(=O)N[C@H]1CCC[C@@H]1OCc1ccccc1 [Compound 126, 2-(benzofuran-5-ylamino)-4-methyl-thiazole-5-carboxylic acid ((1S,2S)-2-benzyloxycyclopent-1-yl) amide]",–
